In article PMC11637191, “The pH-dependence of efflux ratios determined with bidirectional transport assays across cellular monolayers” (International Journal of Pharmaceutics: X, 2024):
Values joined by “and” are separate entries in the source; they are usually repeats but may differ in a detail not shown here. Equal entries are not always repeated. Where two headings read alike, the source gives them in different places.

How the values were obtained:
MDCK-MDR1 cells [1] = conditions: cited from earlier work
MDCK-MDR1 cells [2] = conditions: MDCK-MDR1, pH 7.4
P-gp (MDR1) [3] = experiment: Comparison of Papp,B-A with and without inhibitor in MDCK-MDR1 cells (own and literature data); conditions: dog, This study, varying pH with the iso-method
MDCK-MDR1 cells [4] = experiment: as above
[5] = Calculation of neutral fraction (fn)
[6] = determined 25 °C; etoposide acidic, acebutolol basic; ref Avdeef, 2012; cited from earlier work
P-gp (MDR1) [7] = experiment: in vitro; conditions: dog
in vitro = conditions: dog
[8] = Measurement of paracellular transport (Ppara) in MDCK-MDR1 cells with and without P-gp inhibitors; type: in vitro ADME, canine; conditions: dog, + 2 µM elacridar
Source text: In initial fits, we used experimentally obtained values for Ppara , determined by measuring the Papp of the relevant compound at a pH value where paracellular transport was expected to dominate. Since the compounds in this study are P-gp substrates, elacridar was also used to inhibit P-gp. Under these conditions, the measured Papp is expected to be a measure of Ppara . […]
X Measurement of paracellular transport […]
assess its relative contribution to overall flux, it is necessary to quantify paracellular transport in some way. An approximation of paracellular transport can be mathematically calculated as desc ribed in […]
and cell type can influence and complicate the predictions, leading to uncertainties. H owever, it can also be experimentally measured provided that it can be assured that the P app would be dominated by the contribution of P para . […]
compounds. In order to ensure paracellular dominance, 2 µM elacridar was used to inhibit potential P-gp facilitated efflux, and the transport buffer was set to a pH that would severely restrict the neutral […]
Table S13: P app values and measured logP para for basic and acidic marker compounds. P app values are the mean of three timepoints per replicate, for a total of three replicates (n = 3) ± standard […]
Compound pH Papp, A⟶B logP para Recovery fn
In light of the uncertainties in predicting P para , it was presumed more apt to measure P para for each compound individually in parallel with the pH dependence experiments. As described in Section 4.3 of the main text, experiments were initially performed for each tested compound with inhibitor and appropriate pH values (similar to those performed for Table S12) in an attempt to ensure the dominance of paracellular transport. These values could then be used as a direct measure for P para for each compound that could be fed to the model for its individual fit. […]
affecting P para and/or the measurement of it, we measured the P app of more commonly-used markers for paracellular transport with and without inhibitor. The transport of these rather hydrophilic compounds is known to be dominated by the paracellular route. Furthermore, for our MDCK- MDR1 […]
efflux is not expected to play a role. As such, the addition of inhibitor in this case is purely to evaluate if the P app changes when it is present.

Structure (SMILES): CC[C@@H](CO)NC(=O)[C@@H]1C=C2c3cccc4c3c(cn4C)C[C@H]2N(C)C1 [Methysergide]
- Papp, B⟶A (MDCK-MDR1 cells [1]; MDCK-MDR1, pH 7.4): 75.3
- Papp, inhibitor (MDCK-MDR1 cells [1]; MDCK-MDR1, pH 7.4): 39.4
- Factor difference (MDCK-MDR1 cells [2]; dog): 2

Structure (SMILES): CCCC(=O)Nc1ccc(OCC(O)CNC(C)C)c(C(C)=O)c1 (stereo not shown) [Acebutolol]
- Papp (P-gp (MDR1) [3]; MDCK-MDR1, Papp, B⟶A, without inhibitor): 16.7 ×10⁻⁶ cm/s
- Papp (P-gp (MDR1) [3]; MDCK-MDR1, pH 8, with P-gp inhibitor (elacridar 2 µM in this study's P0 assays), Papp, inhibitor, with inhibitor): 5.03 ×10⁻⁶ cm/s
- Factor difference (MDCK-MDR1 cells [4]; This study, Papp,B⟶A vs Papp with inhibitor, varying pH with the iso-method): 3 and 5
- Papp, inhibitor (MDCK-MDR1 cells [4]; This study, with inhibitor, varying pH with the iso-method): 3.16 ×10⁻⁶ cm/s
- Papp, B⟶A (MDCK-MDR1 cells [4]; This study, without inhibitor, varying pH with the iso-method): 16.7 ×10⁻⁶ cm/s
- Factor difference (MDCK-MDR1 cells [4]; calculated from literature Papp,B⟶A and Papp with inhibitor, pH 7.4 iso-method): 5
- Papp, inhibitor (MDCK-MDR1 cells [1]; with inhibitor, pH 7.4 iso-method, ref Troutman and Thakker (2003)): 3.73e-06 cm/s
- Papp, B⟶A (MDCK-MDR1 cells [1]; without inhibitor, pH 7.4 iso-method, ref Troutman and Thakker (2003)): 1.72e-05 cm/s
- fn ([5]; neutral fraction at pH 5): 0.0%
- fn ([5]; neutral fraction at pH 8): 6%
- pKa [6]: 9.18
- Papp (P-gp (MDR1) [7]; MDCK-MDR1, pH 5): 0.31 ± 0.11 ×10⁻⁶ cm/s
- Papp B→A (P-gp (MDR1) [7]; MDCK-MDR1, pH 5): 0.28 ± 0.05 ×10⁻⁶ cm/s
- Papp (P-gp (MDR1) [7]; MDCK-MDR1, pH 6): 0.1 ± 0.02 ×10⁻⁶ cm/s
- Papp B→A (P-gp (MDR1) [7]; MDCK-MDR1, pH 6): 0.47 ± 0.07 ×10⁻⁶ cm/s
- Papp (P-gp (MDR1) [7]; MDCK-MDR1, pH 7): 0.18 ± 0.02 ×10⁻⁶ cm/s
- Papp B→A (P-gp (MDR1) [7]; MDCK-MDR1, pH 7): 2.92 ± 1.12 ×10⁻⁶ cm/s
- Papp (P-gp (MDR1) [7]; MDCK-MDR1, pH 8): 0.61 ± 0.28 ×10⁻⁶ cm/s
- Papp B→A (P-gp (MDR1) [7]; MDCK-MDR1, pH 8): 16.7 ± 2.4 ×10⁻⁶ cm/s
- Papp (P-gp (MDR1) [7]; MDCK-MDR1, pH 9): 7.41 ± 3.04 ×10⁻⁶ cm/s
- Papp B→A (P-gp (MDR1) [7]; MDCK-MDR1, pH 9): 38.5 ± 8.5 ×10⁻⁶ cm/s
- recovery (in vitro; MDCK-MDR1, pH 5): 90 to 106%
- recovery (in vitro; MDCK-MDR1, pH 6): 88 to 120%
- recovery (in vitro; MDCK-MDR1, pH 7): 88 to 102%
- recovery (in vitro; MDCK-MDR1, pH 8): 78 to 83%
- recovery (in vitro; MDCK-MDR1, pH 9): 72 to 79%
- recovery ([8]; MDCK-MDR1, pH 5, with elacridar 2 µM, pH 5, n = 3 (Table S13)): 100%
- Papp ([8]; MDCK-MDR1, with elacridar 2 µM, pH 5, three replicates (n = 3) (Table S13)): 0.6 ± 0.2 ×10⁻⁶ cm/s

Structure (SMILES): CC(C)N(CCC(c1ccccc1)c1cc(CO)ccc1O)C(C)C (stereo not shown) [5-Hydroxymethyl Tolterodine]
- Papp, B⟶A (MDCK-MDR1 cells [1]; MDCK-MDR1, pH 7.4): 6.3e-05 cm/s
- Papp, inhibitor (MDCK-MDR1 cells [1]; MDCK-MDR1, pH 7.4): 1.1e-05 cm/s
- Factor difference (MDCK-MDR1 cells [2]): 6
